This experiment has as its target T1, DYRK1/DYRK1A (Homo sapiens, UniProt Q13627).
T1 construct: purchased Reaction Biology Corp. (assay service)
The experiment is described as follows: DYRK1/DYRK1A IC50 assay (Reaction Biology Corp.). Conditions: DYRK1/DYRK1A assay from Reaction Biology Corp.; NI: No inhibition. It counts as biochemical.

As usually defined, the IC50 is the concentration that gives 50% inhibition. Lower therefore signals greater potency in that assay.

With `O=c1[nH]c2ccc(-c3cnc(NCc4c[nH]cn4)nc3)cc2[nH]1` [Compound 51d, 5-(2-(((1H-Imidazol-4-yl)methyl)amino)pyrimidin-5-yl)-1H-benzo[d]imidazol-2(3H)-one], inhibition was half-maximal at 326 nM (IC50).

Compound `O=c1[nH]c2ccc(-c3cnc(NCc4cc[nH]n4)nc3)cc2[nH]1` [Compound 51e, 5-(2-(((1H-Pyrazol-3-yl)methyl)amino)pyrimidin-5-yl)-1H-benzo[d]imidazol-2(3H)-one] yielded an IC50 of 337 nM. With `O=c1[nH]c2ccc(-c3cnc(NCc4ncco4)nc3)cc2[nH]1` [Compound 51f, 5-(2-((Oxazol-2-ylmethyl)amino)pyrimidin-5-yl)-1H-benzo[d]imidazol-2(3H)-one] the figure was 427 nM; with `CCn1c(=O)[nH]c2ccc(-c3cnc(NCc4ccccc4)nc3)cc21` [Compound 57a, 6-(2-(Benzylamino)pyrimidin-5-yl)-1-ethyl-1H-benzo[d]imidazol-2(3H)-one], 243 nM; with `CC(C)n1c(=O)[nH]c2ccc(-c3cnc(NCc4ccccc4)nc3)cc21` [Compound 57b, 6-(2-(Benzylamino)pyrimidin-5-yl)-1-isopropyl-1H-benzo[d]imidazol-2(3H)-one], 4280 nM. As for `O=c1[nH]c2ccc(-c3cnc(NCc4ccccc4)nc3)cc2n1C1CC1` [Compound 57c, 6-(2-(Benzylamino)pyrimidin-5-yl)-1-cyclopropyl-1H-benzo[d]imidazol-2(3H)-one], the figure is 714 nM; as for `C[C@@H](Nc1ncc(-c2ccc3[nH]c(=O)[nH]c3c2)cn1)c1ccccc1` [Compound 60a, (R)-5-(2-((1-Phenylethyl)amino)pyrimidin-5-yl)-1H-benzo[d]imidazol-2(3H)-one], 499 nM; as for `C[C@H](Nc1ncc(-c2ccc3[nH]c(=O)[nH]c3c2)cn1)c1ccccc1` [Compound 60b, (S)-5-(2-((1-Phenylethyl)amino)pyrimidin-5-yl)-1H-benzo[d]imidazol-2(3H)-one], 177 nM. With `COCCOc1cccc(CNc2ncc(-c3ccc4[nH]c(=O)[nH]c4c3)cn2)c1` [Compound 62, 5-(2-((3-(2-Methoxyethoxy)benzyl)amino)pyrimidin-5-yl)-1H-benzo[d]imidazol-2(3H)-one] the figure was 48.4 nM.
